Assays:
α1aAR = target: T1, α1aAR (Homo sapiens, UniProt P35348); experiment: BMY7378 competition binding vs [125I]HEAT in human detrusor membranes, low affinity site; conditions: share of total binding sites with low affinity, two-site fit, n=13
T1 construct: from tissue; host or cells: human bladder detrusor smooth muscle membranes
T1 sequence (P35348 1-466): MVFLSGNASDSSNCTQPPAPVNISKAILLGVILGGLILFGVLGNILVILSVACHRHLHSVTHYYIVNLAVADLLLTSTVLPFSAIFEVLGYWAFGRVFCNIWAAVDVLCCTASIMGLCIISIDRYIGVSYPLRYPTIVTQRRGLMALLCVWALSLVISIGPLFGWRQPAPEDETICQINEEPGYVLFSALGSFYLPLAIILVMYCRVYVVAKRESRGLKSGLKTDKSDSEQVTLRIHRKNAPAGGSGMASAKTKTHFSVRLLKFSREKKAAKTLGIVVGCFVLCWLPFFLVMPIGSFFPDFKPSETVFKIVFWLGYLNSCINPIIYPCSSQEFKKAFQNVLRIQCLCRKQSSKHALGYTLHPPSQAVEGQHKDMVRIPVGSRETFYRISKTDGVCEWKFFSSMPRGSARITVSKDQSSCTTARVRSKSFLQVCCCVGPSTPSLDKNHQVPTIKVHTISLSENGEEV
Experimental: (§1) Human detrusor and rat bladder membrane preparation. Human detrusor and rat whole bladder was minced over dry ice, and suspended in cold lysis buffer (5 mM Tris HCl and 5 mM EDTA, pH 7.4) with protease inhibitors benzamidine (10 mg/ml), leupeptin (5 mg/ml), and soybean trypsin inhibitor (10 mg/ml) (Sigma Chemical Company; St. Louis, Mo.). A lysate was prepared with a Polytron PT 3000 (Brinkmann; Westbury, N.Y.) at 10,000 rpm for 10 seconds. After pelleting at 40,000×g for 15 minutes (Sorvall SM24 rotor), membranes were suspended in cold resuspension buffer (150 mM NaCl, 50 mM Tris-HCl, 5 mM EDTA, pH 7.4) with protease inhibitors, and kept on ice for immediate use (or stored at −70° C. for later use). Protein content was determined using the bicinchoninic assay (BCA) with bovine serum albumin (BSA) standards (Pierce; Rockford, Ill.).
(§2) Reaction conditions were as described above. Curves were fit with […] regression analysis using InPlot software (GraphPad).

α1dAR = target: T2, α1dAR (Homo sapiens, UniProt P25100); experiment: BMY7378 competition binding vs [125I]HEAT in human detrusor membranes, high affinity site; conditions: share of total binding sites with high affinity, two-site fit, n=13
T2 construct: from tissue; host or cells: human bladder detrusor smooth muscle membranes
T2 sequence (P25100 1-572): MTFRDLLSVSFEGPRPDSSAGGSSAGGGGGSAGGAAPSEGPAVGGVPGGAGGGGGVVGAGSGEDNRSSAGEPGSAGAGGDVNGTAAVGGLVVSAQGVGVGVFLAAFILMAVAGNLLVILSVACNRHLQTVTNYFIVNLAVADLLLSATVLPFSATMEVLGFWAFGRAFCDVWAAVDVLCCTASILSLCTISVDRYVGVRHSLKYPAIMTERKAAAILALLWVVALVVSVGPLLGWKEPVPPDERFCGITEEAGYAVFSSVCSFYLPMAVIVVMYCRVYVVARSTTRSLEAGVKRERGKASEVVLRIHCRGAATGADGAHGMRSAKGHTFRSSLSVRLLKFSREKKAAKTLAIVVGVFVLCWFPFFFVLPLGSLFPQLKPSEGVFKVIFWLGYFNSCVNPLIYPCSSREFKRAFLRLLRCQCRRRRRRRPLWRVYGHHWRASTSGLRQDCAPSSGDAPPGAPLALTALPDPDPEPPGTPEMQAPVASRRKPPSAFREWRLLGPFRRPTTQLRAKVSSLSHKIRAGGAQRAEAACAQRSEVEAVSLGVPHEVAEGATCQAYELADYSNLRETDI
Experimental: as §1, §2

α1bAR = target: T3, α1bAR (Homo sapiens, UniProt P35368); experiment: BMY7378 competition binding, membranes from rat-1 fibroblasts stably transfected with α1bAR (control); conditions: Control α1b: rat-1 fibroblast membranes stably transfected with α1bAR; read-out: pKi α1bAR (converted)
T3 construct: expressed in transfected cells; host or cells: rat-1 fibroblasts, stably transfected; membranes
T3 sequence (P35368 1-520): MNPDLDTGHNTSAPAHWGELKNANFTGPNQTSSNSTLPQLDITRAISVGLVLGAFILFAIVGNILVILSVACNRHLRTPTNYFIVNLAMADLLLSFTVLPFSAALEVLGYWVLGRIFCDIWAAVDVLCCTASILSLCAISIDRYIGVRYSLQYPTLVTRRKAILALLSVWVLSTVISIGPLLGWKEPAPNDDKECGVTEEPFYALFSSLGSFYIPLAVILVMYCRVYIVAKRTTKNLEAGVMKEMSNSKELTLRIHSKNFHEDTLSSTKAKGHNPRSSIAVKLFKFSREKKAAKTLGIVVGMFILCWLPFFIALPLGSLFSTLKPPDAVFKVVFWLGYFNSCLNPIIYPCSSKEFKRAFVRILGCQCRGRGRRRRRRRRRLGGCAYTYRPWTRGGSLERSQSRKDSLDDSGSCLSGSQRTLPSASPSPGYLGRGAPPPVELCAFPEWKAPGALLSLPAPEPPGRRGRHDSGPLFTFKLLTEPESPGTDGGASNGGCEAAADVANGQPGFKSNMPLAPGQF
Excerpt: as §2

α1ARs in human detrusor = experiment: [125I]HEAT saturation binding in human detrusor membranes; conditions: saturation binding isotherm, n=5
Experimental: as §1
Radioligand binding. All mRNA and protein studies described were performed using detrusor from each patient described above (n=13). […] Dried filters were then counted in a gamma counter. Specific binding was calculated by subtracting nonspecific binding from total binding. […] Total α1AR density was then determined in each detrusor sample as described above, using a saturating concentration of [^125I]HEAT (300 pM). […]

| % Low (α1aAR) | % High (α1dAR) | Ki (α1bAR) | Kd (α1ARs in human detrusor) | SMILES |
| --- | --- | --- | --- | --- |
| 35±3.1% | 66±3.1% | 7.94 µM | – | COc1ccccc1N1CCN(CCN2C(=O)CC3(CCCC3)CC2=O)CC1 [BMY7378] |
| – | – | – | 0.00013 ± 1.09e-06 µM | O=C1c2ccccc2CCC1CNCCc1ccc(O)c(I)c1 (stereo not shown) [[125I]HEAT] |
